Residual activity data for three molecules are collected here from ChEMBL document CHEMBL1152560, “Substituted 2-arylbenzothiazoles as kinase inhibitors: hit-to-lead optimization” (Bioorg Med Chem, 2009).

The target of assay [1] is T1, Serine/threonine-protein kinase Nek1 (Homo sapiens) (UniProt Q96PY6).
T1 sequence (whole entry): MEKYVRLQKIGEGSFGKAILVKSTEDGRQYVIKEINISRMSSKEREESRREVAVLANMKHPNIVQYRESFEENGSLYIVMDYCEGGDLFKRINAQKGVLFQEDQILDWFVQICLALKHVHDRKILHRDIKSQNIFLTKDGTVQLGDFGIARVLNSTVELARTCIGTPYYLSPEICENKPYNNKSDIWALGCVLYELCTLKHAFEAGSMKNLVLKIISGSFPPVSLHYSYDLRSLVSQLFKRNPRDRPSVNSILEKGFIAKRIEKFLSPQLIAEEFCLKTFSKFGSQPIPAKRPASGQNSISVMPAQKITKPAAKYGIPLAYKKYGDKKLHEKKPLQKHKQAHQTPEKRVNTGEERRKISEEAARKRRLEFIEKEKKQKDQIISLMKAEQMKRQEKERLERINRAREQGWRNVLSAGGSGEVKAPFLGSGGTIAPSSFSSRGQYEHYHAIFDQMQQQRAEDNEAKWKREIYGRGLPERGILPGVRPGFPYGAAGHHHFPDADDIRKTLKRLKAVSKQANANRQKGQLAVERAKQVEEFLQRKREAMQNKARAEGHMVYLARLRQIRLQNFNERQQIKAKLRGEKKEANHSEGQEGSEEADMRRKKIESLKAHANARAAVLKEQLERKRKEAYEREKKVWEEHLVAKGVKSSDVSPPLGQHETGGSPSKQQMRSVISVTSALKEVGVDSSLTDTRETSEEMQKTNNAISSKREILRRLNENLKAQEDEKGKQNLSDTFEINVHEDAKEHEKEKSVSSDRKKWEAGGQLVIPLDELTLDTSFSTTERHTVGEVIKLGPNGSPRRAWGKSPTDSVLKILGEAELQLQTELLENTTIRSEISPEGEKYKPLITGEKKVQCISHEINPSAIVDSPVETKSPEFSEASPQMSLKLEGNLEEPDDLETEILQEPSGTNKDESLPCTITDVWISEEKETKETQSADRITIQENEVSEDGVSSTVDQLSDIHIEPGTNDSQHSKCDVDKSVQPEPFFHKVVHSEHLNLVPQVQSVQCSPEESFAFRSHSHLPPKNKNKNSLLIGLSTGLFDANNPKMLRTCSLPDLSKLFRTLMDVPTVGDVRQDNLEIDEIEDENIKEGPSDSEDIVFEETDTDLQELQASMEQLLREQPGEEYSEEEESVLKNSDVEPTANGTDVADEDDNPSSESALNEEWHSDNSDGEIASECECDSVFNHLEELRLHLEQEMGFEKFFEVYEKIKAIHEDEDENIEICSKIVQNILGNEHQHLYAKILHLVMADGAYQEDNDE
Description: Residual activity of NEK1 at 0.1 uM by microplate scintillation counting.

Assay [2] addresses Mitogen-activated protein kinase 9 (Homo sapiens) (UniProt P45984). Description: Residual activity of JNK2 at 10 uM by microplate scintillation counting.
Assay [3] deals with T2, Testis-specific serine/threonine-protein kinase 1 (Homo sapiens) (UniProt Q9BXA7).
T2 sequence (whole entry): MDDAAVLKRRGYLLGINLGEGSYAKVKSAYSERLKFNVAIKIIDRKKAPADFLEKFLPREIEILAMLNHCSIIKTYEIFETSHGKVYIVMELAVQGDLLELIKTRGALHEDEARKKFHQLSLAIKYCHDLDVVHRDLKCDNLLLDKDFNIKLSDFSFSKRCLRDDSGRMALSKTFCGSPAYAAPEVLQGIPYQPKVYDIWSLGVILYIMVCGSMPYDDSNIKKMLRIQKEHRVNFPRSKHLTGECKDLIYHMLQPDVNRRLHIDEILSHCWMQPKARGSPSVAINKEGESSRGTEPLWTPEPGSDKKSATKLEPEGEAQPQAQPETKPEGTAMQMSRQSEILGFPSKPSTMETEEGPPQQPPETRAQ
Description: Residual activity of TSSK1 at 10 uM by microplate scintillation counting.

For assay [4], the target named is T3, Ephrin type-B receptor 4 (Homo sapiens) (UniProt P54760).
T3 sequence (whole entry): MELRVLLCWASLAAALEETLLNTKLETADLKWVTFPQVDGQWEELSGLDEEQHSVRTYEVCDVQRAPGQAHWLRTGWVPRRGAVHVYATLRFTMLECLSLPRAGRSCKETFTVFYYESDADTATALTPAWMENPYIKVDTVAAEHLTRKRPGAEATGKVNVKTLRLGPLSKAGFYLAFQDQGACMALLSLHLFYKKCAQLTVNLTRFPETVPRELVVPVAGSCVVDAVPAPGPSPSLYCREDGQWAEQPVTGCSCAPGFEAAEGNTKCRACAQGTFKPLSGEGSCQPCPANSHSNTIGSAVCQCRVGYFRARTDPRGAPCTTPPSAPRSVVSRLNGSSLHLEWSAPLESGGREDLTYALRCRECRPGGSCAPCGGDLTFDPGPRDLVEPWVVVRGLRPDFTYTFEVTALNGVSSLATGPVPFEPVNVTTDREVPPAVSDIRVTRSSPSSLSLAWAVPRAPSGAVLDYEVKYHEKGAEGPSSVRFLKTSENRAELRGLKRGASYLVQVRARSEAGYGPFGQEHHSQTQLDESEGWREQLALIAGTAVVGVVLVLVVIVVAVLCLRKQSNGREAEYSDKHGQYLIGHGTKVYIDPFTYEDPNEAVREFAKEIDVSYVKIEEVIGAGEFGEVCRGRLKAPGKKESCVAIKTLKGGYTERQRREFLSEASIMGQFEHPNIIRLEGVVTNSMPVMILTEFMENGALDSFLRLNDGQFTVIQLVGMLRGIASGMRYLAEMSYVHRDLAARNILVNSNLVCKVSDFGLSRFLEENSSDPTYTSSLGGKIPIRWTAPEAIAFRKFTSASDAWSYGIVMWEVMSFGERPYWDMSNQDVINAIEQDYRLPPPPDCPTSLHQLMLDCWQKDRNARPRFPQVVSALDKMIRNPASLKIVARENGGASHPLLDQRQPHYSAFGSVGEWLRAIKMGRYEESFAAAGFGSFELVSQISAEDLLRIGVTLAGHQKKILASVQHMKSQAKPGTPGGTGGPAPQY
Description: Residual activity of EPHB4 at 10 uM by microplate scintillation counting.

The target of assay [5] is Ephrin type-A receptor 5 (Homo sapiens) (UniProt P54756). The assay can be described thus: Residual activity of EPHA5 at 1 uM by microplate scintillation counting.
Assay [6] deals with Cyclin-dependent kinase 5/CDK5 activator 1 (Homo sapiens) (UniProt Q00535+Q15078). Description: Residual activity of CDK5/p25NCK at 10 uM by microplate scintillation counting. The class given is protein-complex assay.
Assay [7] has as its target Glycogen synthase kinase-3 alpha (Homo sapiens) (UniProt P49840). Description: Residual activity of GSK3alpha at 1 uM by microplate scintillation counting.
Assay [8] has as its target Tyrosine-protein kinase receptor UFO (Homo sapiens) (UniProt P30530). The assay can be described thus: Residual activity of AXL at 10 uM by microplate scintillation counting.

Cyclin-dependent kinase 5/CDK5 activator 1 (Homo sapiens), sequence (Q00535 whole entry): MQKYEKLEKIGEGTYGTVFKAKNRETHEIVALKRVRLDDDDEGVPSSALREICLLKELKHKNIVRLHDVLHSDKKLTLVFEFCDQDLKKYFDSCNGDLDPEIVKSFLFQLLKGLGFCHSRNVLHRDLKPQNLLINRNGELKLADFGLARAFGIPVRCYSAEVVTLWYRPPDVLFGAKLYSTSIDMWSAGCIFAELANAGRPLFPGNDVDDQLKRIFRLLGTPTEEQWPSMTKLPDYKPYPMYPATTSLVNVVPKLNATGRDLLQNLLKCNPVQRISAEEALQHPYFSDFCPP
Cyclin-dependent kinase 5/CDK5 activator 1 (Homo sapiens), sequence (Q15078 99-307 partner limits assumed): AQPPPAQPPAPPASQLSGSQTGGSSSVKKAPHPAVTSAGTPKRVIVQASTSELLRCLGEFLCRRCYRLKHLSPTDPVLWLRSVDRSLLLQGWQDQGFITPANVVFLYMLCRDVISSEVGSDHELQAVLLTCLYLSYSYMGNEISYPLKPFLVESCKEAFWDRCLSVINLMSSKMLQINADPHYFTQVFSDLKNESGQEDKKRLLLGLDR
Ephrin type-A receptor 5 (Homo sapiens), sequence (P54756 whole entry): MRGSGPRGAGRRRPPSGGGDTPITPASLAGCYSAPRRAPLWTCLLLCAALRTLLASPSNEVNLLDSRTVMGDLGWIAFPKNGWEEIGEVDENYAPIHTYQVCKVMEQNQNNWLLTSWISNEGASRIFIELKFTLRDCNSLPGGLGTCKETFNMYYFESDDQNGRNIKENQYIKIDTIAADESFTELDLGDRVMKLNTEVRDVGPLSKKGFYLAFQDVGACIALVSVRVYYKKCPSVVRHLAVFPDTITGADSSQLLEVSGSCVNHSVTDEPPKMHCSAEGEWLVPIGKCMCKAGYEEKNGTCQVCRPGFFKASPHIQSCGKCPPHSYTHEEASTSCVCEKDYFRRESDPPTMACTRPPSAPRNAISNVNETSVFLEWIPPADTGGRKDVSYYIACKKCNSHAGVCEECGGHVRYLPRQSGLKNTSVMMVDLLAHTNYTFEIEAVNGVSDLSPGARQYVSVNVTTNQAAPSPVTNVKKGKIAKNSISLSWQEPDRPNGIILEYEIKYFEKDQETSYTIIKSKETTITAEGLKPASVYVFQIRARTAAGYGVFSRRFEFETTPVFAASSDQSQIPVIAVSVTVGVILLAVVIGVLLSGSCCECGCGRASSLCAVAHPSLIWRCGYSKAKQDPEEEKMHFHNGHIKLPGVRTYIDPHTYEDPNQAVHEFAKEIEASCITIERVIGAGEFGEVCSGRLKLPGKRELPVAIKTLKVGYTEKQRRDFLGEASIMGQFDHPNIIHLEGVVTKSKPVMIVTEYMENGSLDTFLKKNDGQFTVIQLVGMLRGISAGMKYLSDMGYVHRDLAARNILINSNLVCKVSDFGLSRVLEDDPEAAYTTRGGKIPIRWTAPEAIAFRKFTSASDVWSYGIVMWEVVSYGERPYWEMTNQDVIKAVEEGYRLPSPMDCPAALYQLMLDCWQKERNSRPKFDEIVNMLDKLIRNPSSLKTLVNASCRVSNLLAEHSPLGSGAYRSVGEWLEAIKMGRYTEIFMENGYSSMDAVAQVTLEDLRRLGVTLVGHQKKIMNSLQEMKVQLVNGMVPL
Mitogen-activated protein kinase 9 (Homo sapiens), sequence (P45984 whole entry, looked up): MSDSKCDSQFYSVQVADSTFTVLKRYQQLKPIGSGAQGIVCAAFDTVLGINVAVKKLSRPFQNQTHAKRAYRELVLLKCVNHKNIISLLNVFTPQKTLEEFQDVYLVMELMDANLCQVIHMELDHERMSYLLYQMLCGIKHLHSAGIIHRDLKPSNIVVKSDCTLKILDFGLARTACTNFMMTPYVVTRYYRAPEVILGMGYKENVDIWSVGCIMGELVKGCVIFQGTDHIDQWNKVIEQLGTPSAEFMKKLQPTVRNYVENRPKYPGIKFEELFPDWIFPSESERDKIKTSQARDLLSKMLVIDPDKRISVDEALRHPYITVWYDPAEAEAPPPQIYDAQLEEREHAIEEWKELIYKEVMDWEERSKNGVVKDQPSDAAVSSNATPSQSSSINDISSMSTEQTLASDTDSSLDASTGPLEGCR
Glycogen synthase kinase-3 alpha (Homo sapiens), sequence (P49840 2-483 limits assumed): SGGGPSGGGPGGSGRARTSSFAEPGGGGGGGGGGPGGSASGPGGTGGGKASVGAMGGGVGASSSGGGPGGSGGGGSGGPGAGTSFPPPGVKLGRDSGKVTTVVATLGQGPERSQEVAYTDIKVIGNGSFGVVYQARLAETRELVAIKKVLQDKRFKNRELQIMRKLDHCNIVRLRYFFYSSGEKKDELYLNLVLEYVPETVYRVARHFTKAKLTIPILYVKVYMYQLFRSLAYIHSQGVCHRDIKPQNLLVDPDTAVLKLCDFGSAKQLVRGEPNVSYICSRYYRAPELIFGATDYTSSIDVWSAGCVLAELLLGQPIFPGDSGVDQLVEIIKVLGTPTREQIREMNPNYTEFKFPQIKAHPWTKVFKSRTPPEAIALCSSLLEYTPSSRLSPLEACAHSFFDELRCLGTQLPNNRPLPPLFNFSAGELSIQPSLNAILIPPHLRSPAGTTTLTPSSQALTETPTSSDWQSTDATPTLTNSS
Tyrosine-protein kinase receptor UFO (Homo sapiens), sequence (P30530 whole entry): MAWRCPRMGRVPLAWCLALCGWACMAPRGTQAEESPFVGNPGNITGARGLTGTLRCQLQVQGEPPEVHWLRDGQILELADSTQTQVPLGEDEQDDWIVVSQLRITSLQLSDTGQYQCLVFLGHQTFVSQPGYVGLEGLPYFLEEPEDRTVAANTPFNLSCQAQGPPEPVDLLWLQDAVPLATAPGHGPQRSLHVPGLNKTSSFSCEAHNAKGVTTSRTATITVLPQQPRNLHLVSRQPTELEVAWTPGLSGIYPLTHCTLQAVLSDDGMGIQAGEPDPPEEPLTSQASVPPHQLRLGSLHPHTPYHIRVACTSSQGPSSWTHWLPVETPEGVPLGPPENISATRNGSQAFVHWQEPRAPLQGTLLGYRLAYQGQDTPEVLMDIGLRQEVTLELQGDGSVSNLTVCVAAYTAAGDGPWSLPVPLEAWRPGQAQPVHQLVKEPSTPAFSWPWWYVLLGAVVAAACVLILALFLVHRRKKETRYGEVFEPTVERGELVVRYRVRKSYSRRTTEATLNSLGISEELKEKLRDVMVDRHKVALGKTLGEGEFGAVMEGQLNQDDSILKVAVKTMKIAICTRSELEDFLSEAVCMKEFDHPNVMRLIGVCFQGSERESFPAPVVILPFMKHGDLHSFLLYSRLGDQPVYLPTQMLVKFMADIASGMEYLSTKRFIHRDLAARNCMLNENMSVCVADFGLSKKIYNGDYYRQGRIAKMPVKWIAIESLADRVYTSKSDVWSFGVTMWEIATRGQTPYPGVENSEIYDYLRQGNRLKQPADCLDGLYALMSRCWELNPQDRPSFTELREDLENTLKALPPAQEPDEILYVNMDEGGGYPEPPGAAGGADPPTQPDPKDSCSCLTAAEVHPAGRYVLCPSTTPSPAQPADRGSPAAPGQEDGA

Consider `COc1cc2c(Oc3ccc(-c4nc5ccccc5s4)cc3F)ncnc2cc1OCCCN1CCN(C)CC1`, for which the residual activity stood at 93% in assay [1]; 122% in assay [2]; 397% in assay [3]; 99% in assay [4]; 95% in assay [5]; 116% in assay [6]. Besides, the residual activity is 96% in assay [7] and 54% in assay [8].
On to `COc1cc2c(Oc3ccc(-c4nc5ccccc5s4)cc3)ncnc2cc1OCCCN1CCN(C)CC1`, for which the residual activity in assay [1] amounted to 87%; in assay [2], 96%; in assay [3] it was 406%; in assay [4], 154%; in assay [5] it was 103%; in assay [6], 112%. Also, the residual activity worked out at 87% in assay [7] and 125% in assay [8].
As to `COc1cc2c(Oc3ccc(-c4nc5ccccc5s4)cc3)ncnc2cc1OCCCN1CCCC1`, the residual activity in assay [1] came to 98%; in assay [2] it was 93%; in assay [3], 322%; in assay [4] it was 122%; in assay [5] it was 119%; in assay [6], 117%. Moreover, the residual activity worked out at 83% in assay [7] and 57% in assay [8].
